Assay results published in patent publication US20220347186A1, “METHODS AND COMPOSITIONS FOR TREATING SICKLE CELL DISEASE AND THALASSEMIA” (THE UNIVERSITY OF CHICAGO, priority 2019, published 2022).
“Also recorded” adds a separate entry of the source. Blank lines part the entries; values can stand above or below the molecule they belong to.

Experiments:
K562 cells [1] = experiment: RT-qPCR quantification of gene expression in K562 cells; format: cell-based, human; details: for HBB, HBG1/2 and HBE1 expression compared with JQ1: CPI-0610 reapplied daily, PLX51107 once at day 0
Experimental: (§1) K562, HEL, and HL-60 cells were cultured in RPMI 1640 medium supplemented with 10% FBS. TF-1 cells were cultured in RPMI 1640 medium supplemented with 10% FBS and 4 ng/mL GM-CSF. Before treatment, TF-1 cells were washed 4× with RPMI 1640 without supplements, and cultured in RPMI 1640 medium with 10% FBS but no GM-CSF for 24 hours. 4 ng/mL GM-CSF or 3 units/mL EPO were added at the time of treatment set up. K562, HEL, and HL-60 cells were cultured as normal until treatment set up. JQ1 (Sigma-Aldrich, SML1524), CPI-0610 (Selleck Chemicals, S7853), and PLX51107 (MedChemExpress, HY-111422) were dissolved in DMSO to 10 mM concentration and stored in −80° C. All three inhibitors were applied to cells at 200 nM, with parallel DMSO treatment (0.002%) as control. JQ1 and PLX51107 were added to cell culture at day 0 without additional treatments up to day 5. CPI-0610 was reapplied to the cells on a daily basis.
(§2) cDNA libraries for mRNAs were made from 1 μg input RNA using High-Capacity cDNA Reverse Transcription Kit (ThermoFisher, 4368814). Gene expressions were quantified using Power SYBR Green PCR Master Mix (Thermofisher, 4367659). For microRNAs, cDNA libraries were made with Taqman Advanced miRNA cDNA Synthesis Kit (Thermofisher, A28007). miR-15A and miR-16-1 were quantified using the Taqman Advanced miRNA Assays (ThermoFisher, A25576) specific to hsa-miR-15a-5p (assay ID: 477858_mir) and hsa-miR-16-5p (assay ID: 477860_mir).

TF-1 cells [2] = experiment: RT-qPCR quantification of gene expression in TF-1 cells; format: cell-based, human; details: for HBB, HBG1/2 and HBE1 expression compared with JQ1: CPI-0610 reapplied daily, PLX51107 once at day 0
Experimental: as §1, §2

[3] = Lifespan in culture medium; format: physicochemical
BET proteins = details: cited from earlier work; for Bromodomain preference (BD1 vs BD2): BET proteins; for Affinity among BET family members: BRD2/BRD3/BRD4/BRDT, literature refs 17, 18
K562 cells [4] = experiment: Cell growth and viability of K562 cells with BET inhibitor; format: cell-based; details: 200 nM vs DMSO control
Experimental: as §1

HEL cells [5] = experiment: Cell growth and viability of HEL cells with BET inhibitor; format: cell-based; details: 200 nM vs DMSO control, days 0-3
Experimental: as §1

K562 cells [6] = experiment: Benzidine-hematoxylin staining for hemoglobin producing cells; format: cell-based; details: 200 nM
Experimental: as §1
K562 cells were counted, and 200,000 cells were collected by spinning at 400 g. […]
At least three randomly selected fields of stained cells were imaged at 40× magnification. […] The numbers of benzidine-positive cells and the intensity of benzidine staining were quantified in the benzidine channel, whereas the total cell number and abnormal nuclear morphology were quantified in the hematoxylin channel. Results of all fields from each slide were summed for the final quantification.

HEL cells [7] = experiment: RT-qPCR quantification of hemoglobin gene expression in HEL cells; format: cell-based, human; details: 200 nM
Experimental: as §1, §2

HL-60 cells = experiment: RT-qPCR quantification of hemoglobin gene expression in HL-60 cells; format: cell-based, human; details: 200 nM
Experimental: as §1, with “CPI-0610 was reapplied to the cells on a daily basis.” left out
as §2

K562 cells [8] = experiment: RNA-seq gene expression in K562 cells; format: cell-based, human
Experimental: as §1
(§3) Sample RNA libraries were prepared using the KAPA mRNA HyperPrep Kit (Roche, KK8580) with 1 μg input RNA and submitted for sequencing. Raw reads in fastq format were aligned to the hg19 reference genome using HISAT2(38) with Gencode gene and transcript annotation (GRCh37.p13)(39). Gene expression was quantified and compared by tools in the Cuffliks package (40). GO analysis and term clustering was performed using g:Profiler and Cytoscape following the protocols published by Reimand et al (41).

TF-1 cells [9] = experiment: RNA-seq gene expression in TF-1 cells; format: cell-based, human
Experimental: as §1, §3

[10] = system: β-globin locus in K562 cells; experiment: 3C-qPCR interaction frequency at the β-globin locus in K562 cells; format: cell-based, human
Experimental: as §1
Methods for chromatin conformation capture (3C) qPCR was adapted from Hagège et al. (42). Briefly, 10 million cells were collected and fixed with 1% formaldehyde for 5 minutes in PBS with 10% FBS for 5 minutes, then quenched by 124 mM glycine on ice. The fixed cells were then lysed and digested by 400 units of EcoRI (NEB, R3101). Small aliquots of the samples were taken before and after the digestion as digestion controls. Following the digestion, the samples were diluted and ligated by T4 DNA ligase (NEB, M0202). The samples were then reverse-crosslinked, and DNA was purified by phenol-chloroform extraction. The digestion efficiency, sample purity, and DNA concentration of each sample were assessed by qPCR to exclude low-quality samples prior to the 3C quantification. Calculated quantity of each primer pairs was normalized as number of templates per million B13 control site template. Additionally, because the Gg primer anneals to both HBG1 and HBG2 fragments, while the Ag primer anneals to only HBG2 fragment, the Gg primer signal was subtracted by Ag primer signal to quantify the HBG1 interaction frequency. […]

[11] = system: β-globin locus in TF-1 cells; experiment: 3C-qPCR interaction frequency at the β-globin locus in TF-1 cells; format: cell-based, human
Experimental: as §1, with “JQ1 and PLX51107 were added to cell culture at day 0 without additional treatments up to day 5. CPI-0610 was reapplied to the cells on a daily basis.” left out
Methods for chromatin conformation capture (3C) qPCR was adapted from Hagège et al. (42). […] The digestion efficiency, sample purity, and DNA concentration of each sample were assessed by qPCR to exclude low-quality samples prior to the 3C quantification. Calculated quantity of each primer pairs was normalized as number of templates per million B13 control site template. Additionally, because the Gg primer anneals to both HBG1 and HBG2 fragments, while the Ag primer anneals to only HBG2 fragment, the Gg primer signal was subtracted by Ag primer signal to quantify the HBG1 interaction frequency. […]

GATA1 in K562 cells = experiment: Immunoprecipitation and quantification of total and acetyl-GATA1; format: cell-based; details: K562 nuclear lysate
Experimental: Nuclear protein was extracted according to previously described protocol (45). 10% of the nuclear protein extraction was saved as input. The remaining nuclear extract was diluted with non-denaturing IP buffer (20 mM Tris-HCl pH 8, 137 mM NaCl, 10% glycerol, 1% Triton X-100, 2 mM EDTA) and pre-cleared with normal rat IgG (Santa Cruz, sc2026) and Dynabeads Protein G (ThermoFisher, 10004D). Pre-cleared solutions were split into two equal portions, and 5 μg of anti-GATA1 antibody (Santa Cruz, sc266) or normal rat IgG were added to either portion and incubated overnight at 4° C. overnight. Antibodies were then pulled-down using Dynabeads Protein G, and washed 1× with the IP buffer and 2× with PBS containing 1% Triton X-100. The beads were boiled in 2× protein loading buffer to dissociate the proteins. Input and IP-ed proteins were ran on SDS-PAGE gels and transferred to PVDF membranes. The input samples were blotted using anti-topoisomerase 1 (Abcam, ab109374) and anti-GATA1 antibodies, and the IP-ed samples were blotted with anti-acetyl-lysine antibody (Abcam, ab21623). Quantification of signal intensity was done by ImageJ, and GATA1 and acetyl-GATA1 signals were normalized to the topoisomerase 1 signals in each sample.

K562 cells [12] = experiment: Sanger sequencing of HBG1/2 cDNA, HBG1 vs HBG2 ratio, K562 cells; format: cell-based, human; details: DMSO vs JQ1 treatment, sequencing peak heights
HEL cells [13] = experiment: Sanger sequencing of HBG1/2 cDNA, HBG1 vs HBG2 ratio, HEL cells; format: cell-based, human; details: DMSO vs JQ1 treatment, sequencing peak heights
[14] = TF-1 cells under proliferative condition, 200 nM
[15] = TF-1 cells, both proliferation and erythropoietic conditions

Lifespan in culture medium [3]: short lifespan
SMILES: Cc1noc2c1-c1ccccc1C(c1ccc(Cl)cc1)=N[C@H]2CC(N)=O [CPI-0610]
HBB, HBG1/2 and HBE1 expression compared with JQ1 (K562 cells [1]; 200 nM): mimic the effects of JQ1 | HBB, HBG1/2 and HBE1 expression compared with JQ1 (TF-1 cells [2]; TF-1 cells, 200 nM): mimic the effects of JQ1 | Bromodomain preference (BD1 vs BD2) (BET proteins): preference for the second bromodomain (BD2) | Affinity among BET family members (BET proteins): comparable affinity

SMILES: Cc1sc2c(c1C)C(c1ccc(Cl)cc1)=N[C@@H](CC(=O)OC(C)(C)C)c1nnc(C)n1-2 [JQ1]
Cell growth (K562 cells [4]): grow slower; also recorded: not significantly affected; also recorded: slightly suppresses cell growth, but this effect was not statistically significant; also recorded: slightly suppress cell growth, but this effect was not statistically significant | Cell viability (K562 cells [4]): unaffected; also recorded: not significantly affected; also recorded: did not affect cell viability | Cell growth (HEL cells [5]): grow slower; also recorded: significantly suppress cell growth by Day 3 | Cell viability (HEL cells [5]): unaffected; also recorded: did not affect cell viability | Percentage of hemoglobin producing cells (benzidine-hematoxylin staining) (K562 cells [6]; day 3): ~6% | Percentage of hemoglobin producing cells (benzidine-hematoxylin staining) (K562 cells [6]; day 5): over 10% | miR-15A expression (K562 cells [1]): significantly upregulated | miR-16-1 expression (K562 cells [1]): significantly upregulated | HBB expression (K562 cells [1]; 200 nM, 5-day time course): unaffected | HBE1 expression (K562 cells [1]; 200 nM, 5-day time course): upregulated | HBG1/2 expression (K562 cells [1]; 200 nM, 5-day time course): upregulated | MYC expression (K562 cells [1]; 200 nM, up to 4 days after the initial treatment): consistently suppressed | BGLT3 expression increase (K562 cells [1]; RT-qPCR): 6 fold | HEMGN expression (K562 cells [1]; RT-qPCR): significantly suppressed | MYB expression (K562 cells [1]; RT-qPCR): significantly suppressed | miR-15A expression (TF-1 cells [2]; TF-1 cells): significantly upregulated | miR-16-1 expression (TF-1 cells [2]; TF-1 cells): significantly upregulated | HBB expression (TF-1 cells [2]; TF-1 cells treated with both EPO and JQ1): significantly decreased | HBE1 expression increase (TF-1 cells [2]; TF-1 cells treated with both EPO and JQ1, day 5): over 200 fold | HBB expression (TF-1 cells [2]; [14]): not observed | HBE1 expression (TF-1 cells [2]; TF-1 cells, 200 nM, without EPO): only upregulated | BCL11A expression (TF-1 cells [2]; TF-1 cells, RT-qPCR): significantly suppressed | MYB expression (TF-1 cells [2]; TF-1 cells, RT-qPCR): significantly suppressed | HEMGN expression (TF-1 cells [2]; TF-1 cells, RT-qPCR, especially under erythropoietic condition): significantly suppressed | Proportion of HBB transcripts relative to total β-globin transcripts (TF-1 cells [2]; [15]): significantly decreased | Proportion of HBE1 transcripts relative to total β-globin transcripts (TF-1 cells [2]; [15]): increased | HBB expression (HEL cells [7]): suppressing | HBE1 expression (HEL cells [7]): significantly upregulated | HBG1/2 expression (HEL cells [7]): significantly upregulated | HBB, HBG1/2 and HBE1 expression (HL-60 cells): had no effect | Expression of heme biosynthesis pathway genes, notably ALAS2 (K562 cells [8]; RNA-seq): upregulated | Expression of α- and β-globin hemoglobin genes (K562 cells [8]; RNA-seq): increased the expression of all α- and β-globin hemoglobin genes except HBB and HBD | GATA1 expression (K562 cells [8]; RNA-seq): did not change | HEMGN expression (K562 cells [8]; RNA-seq): significantly suppresses | NR2F2 expression (K562 cells [8]; RNA-seq): did not change | Differentiation (GO analysis of up- and down-regulated genes) (K562 cells [8]; day 3 and day 5): specifically promotes erythroid, but not myeloid differentiation | Transcriptome (gene expression) change (K562 cells [8]; day 3 and day 5, JQ1 vs DMSO): substantially changed the transcriptome | GATA1 expression (TF-1 cells [9]; TF-1 cells): did not change | HBA1/2 expression (α-globin locus) (TF-1 cells [9]; TF-1 cells): upregulated | HBE1 expression (β-globin locus) (TF-1 cells [9]; TF-1 cells): specifically induced | HEMGN expression (TF-1 cells [9]; TF-1 cells): significantly suppresses | KLF1 expression (TF-1 cells [9]; TF-1 cells, erythropoietic condition): slightly decreased | ALAS2 expression (TF-1 cells [9]; TF-1 cells, especially under erythropoietic conditions): upregulated | KLF1 expression (TF-1 cells [9]; TF-1 cells, proliferative condition): significantly suppressed | NR2F2 expression (TF-1 cells [9]; proliferative TF-1 cells): significantly suppressed | Interaction frequency of 5′BG (5′BGLT3 fragment) with the HBG1/2 region and the LCR [10]: significantly increase | Increase in interaction frequency between the LCR and the HBG promoter region ([10]; 72 hours of JQ1 treatment): over 2 fold | Interaction frequency between the LCR and the rest of the β-globin locus ([10]; 72 hours of JQ1 treatment): slight increases | Interaction with LCR across the entire locus, except at the HBE1 promoter region ([11]; both proliferative and erythropoietic conditions, 72 hours): modest decrease | Interaction between 5′BG and upstream fragments ([11]; more prominent in the erythropoietic condition): slight decrease | GATA1 acetylation (GATA1 in K562 cells; IP, anti-acetyl-lysine): remained unchanged; also recorded: does not affect | Total GATA1 level (GATA1 in K562 cells; normalized to TOP1): did not affect | Ratio of HBG1 vs. HBG2 (K562 cells [12]): no significant changes | Ratio of HBG1 vs. HBG2 (HEL cells [13]): no significant changes | Affinity among BET family members (BET proteins): higher affinity for BRD3 and BRD4

SMILES: Cc1noc(C)c1-c1cnc2c(-c3ccc(C(=O)O)cc3)cn([C@@H](C)c3ccccn3)c2c1 [PLX51107]
HBB, HBG1/2 and HBE1 expression compared with JQ1 (K562 cells [1]; 200 nM): mimic the effects of JQ1 | HBB expression (TF-1 cells [2]; [14]): significantly suppressed | HBB, HBG1/2 and HBE1 expression compared with JQ1 (TF-1 cells [2]; TF-1 cells, 200 nM): mimic the effects of JQ1 | Bromodomain preference (BD1 vs BD2) (BET proteins): preferentially binds to BD1 | Affinity among BET family members (BET proteins): somewhat lower affinity for BRDT
